Tests used:
SUMO = molecular target: T1, SUMO (Homo sapiens, UniProt Q9UBT2); assay: SUMO activity (Table I, biological activities); format: biochemical; set-up: key: + (less active); ++ (active); +++ (most active)
T1 sequence (Q9UBT2 1-640): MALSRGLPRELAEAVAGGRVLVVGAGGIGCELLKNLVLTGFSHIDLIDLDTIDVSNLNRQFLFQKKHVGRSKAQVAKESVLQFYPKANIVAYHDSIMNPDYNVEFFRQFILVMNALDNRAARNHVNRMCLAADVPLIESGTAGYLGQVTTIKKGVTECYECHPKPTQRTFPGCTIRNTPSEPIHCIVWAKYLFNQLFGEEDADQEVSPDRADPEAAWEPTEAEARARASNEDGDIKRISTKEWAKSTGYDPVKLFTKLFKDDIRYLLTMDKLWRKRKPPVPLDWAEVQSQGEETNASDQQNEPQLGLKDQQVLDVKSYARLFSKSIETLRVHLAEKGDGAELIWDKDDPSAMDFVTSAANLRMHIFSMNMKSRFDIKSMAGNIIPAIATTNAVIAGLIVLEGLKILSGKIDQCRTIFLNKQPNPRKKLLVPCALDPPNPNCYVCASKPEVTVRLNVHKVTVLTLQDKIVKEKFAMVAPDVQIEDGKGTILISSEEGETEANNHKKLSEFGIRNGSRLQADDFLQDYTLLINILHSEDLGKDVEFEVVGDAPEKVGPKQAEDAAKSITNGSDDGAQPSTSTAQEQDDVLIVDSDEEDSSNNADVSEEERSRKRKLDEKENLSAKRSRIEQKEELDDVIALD
T1 sequence (Q9UBE0 1-346 partner): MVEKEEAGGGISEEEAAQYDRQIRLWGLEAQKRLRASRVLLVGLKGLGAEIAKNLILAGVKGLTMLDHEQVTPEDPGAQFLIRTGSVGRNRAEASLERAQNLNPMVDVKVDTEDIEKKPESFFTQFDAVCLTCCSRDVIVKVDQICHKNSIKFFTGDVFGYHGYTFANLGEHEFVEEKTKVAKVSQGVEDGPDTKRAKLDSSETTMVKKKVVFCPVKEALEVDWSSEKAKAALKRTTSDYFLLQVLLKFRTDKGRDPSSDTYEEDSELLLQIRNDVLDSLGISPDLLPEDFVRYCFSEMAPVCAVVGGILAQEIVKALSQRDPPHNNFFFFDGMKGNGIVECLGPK

c-Myc = c-Myc activity (Table I, biological activities); set-up: key: + (less active); ++ (active); +++ (most active)

## COC(=O)C1=C(C(=O)Nc2ccccc2)C2C=CC1(C(Cc1ccccc1)Nc1ccccc1)O2 (centres unmarked) [Compound 300]
SUMO
  SUMO: +++
c-Myc
  c-Myc: +

## COC(=O)C1=C(C(=O)NC2CCN(C)CC2)C2CCC1(C(Cc1ccccc1)Nc1ccccc1)O2 (centres unmarked) [Compound 304]
SUMO
  SUMO: +
c-Myc
  c-Myc: +

## CNC(=O)C1=C(C(=O)Nc2ccccc2)C2C=CC1(C(Cc1ccccc1)Nc1ccccc1)O2 (centres unmarked) [Compound 305]
SUMO
  SUMO: +
c-Myc
  c-Myc: +

## COC(=O)C1=C(C(=O)OC)C2(C(Cc3ccccc3)Nc3cccc(Oc4ccccc4)c3)C=CC1O2 (centres unmarked) [Compound 307]
SUMO
  SUMO: +++
c-Myc
  c-Myc: +

## COC(=O)C1=C(C(=O)Nc2ccc(OC)c(F)c2)C2C=CC1(C(Cc1ccccc1)Nc1ccccc1)O2 (centres unmarked) [Compound 308]
SUMO
  SUMO: +
c-Myc
  c-Myc: +

## COC(=O)C1=C(C(=O)Nc2ccc3c(c2)OCO3)C2C=CC1(C(Cc1ccccc1)Nc1ccccc1)O2 (centres unmarked) [Compound 309]
SUMO
  SUMO: +
c-Myc
  c-Myc: +

## COC(=O)C1=C(C(=O)O)C2(C(Cc3ccccc3)Nc3cc(F)cc(F)c3)C=CC1O2 (centres unmarked) [Compound 310]
SUMO
  SUMO: +
c-Myc
  c-Myc: +

## COC(=O)C1=C(C(=O)NC2CCN(C)CC2)C2(C(Cc3ccccc3)Nc3cc(F)cc(F)c3)C=CC1O2 (centres unmarked) [Compound 311]
SUMO
  SUMO: ++
c-Myc
  c-Myc: ++

## CCOC(=O)C1=C(C(=O)OCC)C2(C(Cc3ccccc3)Nc3ccc(F)cc3F)C=CC1O2 (centres unmarked) [Compound 312]
SUMO
  SUMO: ++
c-Myc
  c-Myc: +

## CC(C)(C)OC(=O)C1=C(C(=O)OC(C)(C)C)C2(C(Cc3ccccc3)Nc3ccc(F)cc3F)C=CC1O2 (centres unmarked) [Compound 313]
SUMO
  SUMO: +++
c-Myc
  c-Myc: +

## COC(=O)C1=C(C(=O)NNc2ccc(F)c(F)c2)C2C=CC1(C(Cc1ccccc1)Nc1cc(F)cc(F)c1)O2 (centres unmarked) [Compound 314]
SUMO
  SUMO: ++
c-Myc
  c-Myc: +

## COC(=O)C1=C(C(=O)NNc2ccc(F)c(F)c2)C2(C(Cc3ccccc3)Nc3cc(F)cc(F)c3)C=CC1O2 (centres unmarked) [Compound 315]
SUMO
  SUMO: ++
c-Myc
  c-Myc: +

## COC(=O)C1=C(C(=O)NNc2cc(C(F)(F)F)cc(C(F)(F)F)c2)C2(C(Cc3ccccc3)Nc3cc(F)cc(F)c3)C=CC1O2 (centres unmarked) [Compound 316]
SUMO
  SUMO: ++
c-Myc
  c-Myc: +

## COC(=O)C1=C(C(=O)NNc2cc(C(F)(F)F)cc(C(F)(F)F)c2)C2C=CC1(C(Cc1ccccc1)Nc1cc(F)cc(F)c1)O2 (centres unmarked) [Compound 317]
SUMO
  SUMO: +
c-Myc
  c-Myc: +

## COC(=O)C1=C(C(N)=O)C2C=CC1(C(Cc1ccccc1)Nc1cccc(Oc3ccccc3)c1)O2 (centres unmarked) [Compound 319]
SUMO
  SUMO: +++
c-Myc
  c-Myc: +

## COC(=O)C1=C(C(=O)NC2CCN(C)CC2)C2C=CC1(C(Cc1ccccc1)Nc1cccc(Oc3ccccc3)c1)O2 (centres unmarked) [Compound 320]
SUMO
  SUMO: +++
c-Myc
  c-Myc: ++

## COC(=O)C1=C(C(=O)Nc2ccc(OC)cc2)C2C=CC1(C(Cc1ccccc1)Nc1cccc(Oc3ccccc3)c1)O2 (centres unmarked) [Compound 321]
SUMO
  SUMO: +++
c-Myc
  c-Myc: +

## COC(=O)C1=C(C(=O)NC2CCN(C(C)C)CC2)C2C=CC1(C(Cc1ccccc1)Oc1ccccc1)O2 (centres unmarked) [Compound 324]
SUMO
  SUMO: ++
c-Myc
  c-Myc: ++

## COC(=O)C1=C(C(=O)Nc2ccc(OC)cc2)C2C=CC1(C(Cc1ccccc1)Oc1ccccc1)O2 (centres unmarked) [Compound 325]
SUMO
  SUMO: ++
c-Myc
  c-Myc: ++

## COC(=O)C1=C(C(=O)NCCN2CCOCC2)C2C=CC1(C(Cc1ccccc1)Oc1ccccc1)O2 (centres unmarked) [Compound 326]
SUMO
  SUMO: ++
c-Myc
  c-Myc: ++

## CCOC(=O)C1=C(C(=O)NC2CCN(C)CC2)C2C=CC1(C(Cc1ccccc1)Nc1ccc(F)cc1F)O2 (centres unmarked) [Compound 329]
SUMO
  SUMO: +++
c-Myc
  c-Myc: ++

## COC(=O)C1=C(C(=O)Nc2ccc(C)nc2)C2C=CC1(C(Cc1ccccc1)Oc1ccccc1)O2 (centres unmarked) [Compound 333]
SUMO
  SUMO: +
c-Myc
  c-Myc: +

## CCOC(=O)C1=C(C(=O)NC2CCN(C)CC2)C2CCC1(C(Cc1ccccc1)Nc1ccc(F)cc1F)O2 (centres unmarked) [Compound 345]
SUMO
  SUMO: +
c-Myc
  c-Myc: +

## COC(=O)C1=C(C(=O)Nc2ccc(C)c(F)c2)C2C=CC1(C(Cc1ccccc1)Nc1cc(F)cc(Cl)c1)O2 (centres unmarked) [Compound 348]
SUMO
  SUMO: ++
c-Myc
  c-Myc: +

## COC(=O)C1=C(C(=O)Nc2ccc(C)nc2)C2CCC1(C(Cc1ccccc1)Nc1ccccc1)O2 (centres unmarked) [Compound 349]
SUMO
  SUMO: +
c-Myc
  c-Myc: +

## COC(=O)C1=C(C(=O)Nc2ccc(OC)cc2)C2CCC1(C(Cc1ccccc1)Oc1ccccc1)O2 (centres unmarked) [Compound 350]
SUMO
  SUMO: +
c-Myc
  c-Myc: +

## COC(=O)C1=C(C(=O)Nc2ccc(C)c(F)c2)C2C=CC1(C(Cc1ccccc1)Nc1ccccc1F)O2 (centres unmarked) [Compound 351]
SUMO
  SUMO: +++
c-Myc
  c-Myc: +

## COC(=O)C1=C(C(=O)Nc2ccccc2OC)C2C=CC1(C(Cc1ccccc1)Nc1ccccc1)O2 (centres unmarked) [Compound 352]
SUMO
  SUMO: ++
c-Myc
  c-Myc: +

## COC(=O)C1=C(C(=O)Nc2ccc(OC)cc2OC)C2C=CC1(C(Cc1ccccc1)Nc1ccccc1)O2 (centres unmarked) [Compound 353]
SUMO
  SUMO: +
c-Myc
  c-Myc: +

## COC(=O)C1=C(C(=O)Nc2c(C)cccc2C)C2C=CC1(C(Cc1ccccc1)Nc1ccccc1)O2 (centres unmarked) [Compound 354]
SUMO
  SUMO: +
c-Myc
  c-Myc: +

## COC(=O)C1=C(C(=O)NC2CCN(S(=O)(=O)c3ccccc3)CC2)C2C=CC1(C(Cc1ccccc1)Nc1ccccc1)O2 (centres unmarked) [Compound 358]
SUMO
  SUMO: +
c-Myc
  c-Myc: +

## COC(=O)C1=C(C(=O)Nc2cccc(F)c2C)C2C=CC1(C(Cc1ccccc1)Nc1ccccc1)O2 (centres unmarked) [Compound 359]
SUMO
  SUMO: ++
c-Myc
  c-Myc: +

## COC(=O)C1=C(C(=O)Nc2ccccc2C)C2C=CC1(C(Cc1ccccc1)Nc1ccccc1)O2 (centres unmarked) [Compound 360]
SUMO
  SUMO: ++
c-Myc
  c-Myc: +

## COC(=O)C1=C(C(=O)NC2CCN(S(C)(=O)=O)CC2)C2C=CC1(C(Cc1ccccc1)Nc1ccccc1)O2 (centres unmarked) [Compound 361]
SUMO
  SUMO: ++
c-Myc
  c-Myc: +

## COC(=O)C1=C(C(=O)NC2CCN(C(C)C)CC2)C2CCC1(C(Cc1ccccc1)Nc1ccccc1)O2 (centres unmarked) [Compound 366]
SUMO
  SUMO: +
c-Myc
  c-Myc: +

## COCCN1CCC(NC(=O)C2=C(C(=O)OC)C3(C(Cc4ccccc4)Nc4ccccc4)CCC2O3)CC1 (centres unmarked) [Compound 367]
SUMO
  SUMO: +
c-Myc
  c-Myc: +

## COC(=O)C1=C(C(=O)NC2CCN(C(C)=O)CC2)C2CCC1(C(Cc1ccccc1)Nc1ccccc1)O2 (centres unmarked) [Compound 368]
SUMO
  SUMO: +
c-Myc
  c-Myc: +

## COC(=O)C1=C(C(=O)NC2CCN(Cc3ccccc3)CC2)C2CCC1(C(Cc1ccccc1)Nc1ccccc1)O2 (centres unmarked) [Compound 369]
SUMO
  SUMO: +
c-Myc
  c-Myc: +

## COC(=O)C1=C(C(=O)NC2CCN(C(=O)c3ccc(F)cc3)CC2)C2CCC1(C(Cc1ccccc1)Nc1ccccc1)O2 (centres unmarked) [Compound 370]
SUMO
  SUMO: +
c-Myc
  c-Myc: +

## COC(=O)C1=C(C(=O)Nc2ccc(N3CCN(C)CC3)cc2)C2CCC1(C(Cc1ccccc1)Nc1ccccc1)O2 (centres unmarked) [Compound 371]
SUMO
  SUMO: +
c-Myc
  c-Myc: +

## CCN(CC)CCNC(=O)C1=C(C(=O)OC)C2(C(Cc3ccccc3)Nc3ccc(F)cc3)C=CC1O2 (centres unmarked) [Compound 375]
SUMO
  SUMO: ++
c-Myc
  c-Myc: +

## CCN(CC)CCNC(=O)C1=C(C(=O)OC)C2(C(Cc3ccccc3)Nc3cc(F)cc(Cl)c3)C=CC1O2 (centres unmarked) [Compound 376]
SUMO
  SUMO: +++
c-Myc
  c-Myc: ++

## COC(=O)C1=C(C(=O)NC2CCN(C(=O)C3CC3)CC2)C2C=CC1(C(Cc1ccccc1)Nc1ccccc1)O2 (centres unmarked) [Compound 377]
SUMO
  SUMO: ++
c-Myc
  c-Myc: +

## COC(=O)C1=C(C(=O)NC2CCN(C(=O)C3CCN(C)CC3)CC2)C2C=CC1(C(Cc1ccccc1)Nc1ccccc1)O2 (centres unmarked) [Compound 378]
SUMO
  SUMO: ++
c-Myc
  c-Myc: +

## COC(=O)C1=C(C(=O)NC2CCN(C(=O)c3ccc(C#N)cc3)CC2)C2C=CC1(C(Cc1ccccc1)Nc1ccccc1)O2 (centres unmarked) [Compound 379]
SUMO
  SUMO: ++
c-Myc
  c-Myc: +

## COC(=O)C1=C(C(=O)NC2CCN(C(=O)c3ccc(Cl)cc3)CC2)C2C=CC1(C(Cc1ccccc1)Nc1ccccc1)O2 (centres unmarked) [Compound 380]
SUMO
  SUMO: ++
c-Myc
  c-Myc: +

## COC(=O)C1=C(C(=O)NC2CCN(C(=O)c3c(C)cccc3C)CC2)C2C=CC1(C(Cc1ccccc1)Nc1ccccc1)O2 (centres unmarked) [Compound 381]
SUMO
  SUMO: ++
c-Myc
  c-Myc: +

## COC(=O)C1=C(C(=O)NC2CCN(C(=O)NCC3CCCO3)CC2)C2C=CC1(C(Cc1ccccc1)Nc1ccccc1)O2 (centres unmarked) [Compound 382]
SUMO
  SUMO: ++
c-Myc
  c-Myc: +

## COC(=O)C1=C(C(=O)NC2CCN(C(=O)c3ccsc3)CC2)C2C=CC1(C(Cc1ccccc1)Nc1ccccc1)O2 (centres unmarked) [Compound 383]
SUMO
  SUMO: ++
c-Myc
  c-Myc: +

Source: US11578079B2, “SUMO inhibitor compounds and uses thereof” (CITY OF HOPE, priority 2018, dated 2023)
